Reference: PMC8103899, “Allyl Isothiocyanate: A TAS2R38 Receptor-Dependent Immune Modulator at the Interface Between Personalized Medicine and Nutrition” (Frontiers in Immunology, 2021)

Assays:
TAS2R38-PAV receptor = system: TAS2R38-PAV receptor; parameters: method as in PMID 20022913; conditions: cited from earlier work
TRPA1 = system: TRPA1; parameters: method as in PMID 21763756; conditions: calcium assays; cited from earlier work
[1] = Human food intervention: AITC metabolite plasma levels after mustard intake (LC-ESI-MS/MS); format: in vivo; conditions: for detection in plasma: human volunteers after mustard preparation (data not shown); for blood plasma level: human volunteers
Experimental: AITC metabolite quantification was carried out in blood plasma samples derived from an intervention study at the University Medical Center in Freiburg, Germany. Samples were from 4 healthy young adults (3 females, 1 male, aged between 30-40 years) having a normal BMI, and were non-smokers. Each subject consumed one time 10 g of a commercially available mustard preparation ([…] Munich, Germany) containing 24.74 ± 1.76 μmol/g fresh weight preformed AITC on an empty stomach with optional consumption of white bread. The intervention was preceded by a 48 h wash-out phase consisting of a glucosinolate/ITC-free diet. After 30 min and optionally 60 min, blood was collected by venipuncture in serum tubes and centrifuged at 2000g for 10 min, 4°C to obtain serum. Subsequently, TFA was added and the samples frozen at -80°C. The preparation of serum samples (300 μL serum and 100 μL TFA) was conducted as described by Kühn et al. ([37]). The frozen samples were thawed, vortexed (1 min) and centrifuged (4 °C, 10 min, 20.854 x g). The supernatant was transferred to SPE cartridges. Prior to transferring, SPE cartridges were conditioned with acetonitrile (ACN, 3 mL) and equilibrated with water (3 mL). After sample application, the cartridges were washed with formic acid (FA, 3 mL, 0.1% in water) and the metabolites were eluted with FA (3 mL, 0.1% in ACN:water, 90:10, v/v). […] The samples were re-dissolved in 100 μL FA (0.1% in ACN:water, 90:10, v/v). Sample aliquots of 5 μL were injected into the LC-ESI-MS/MS system. LC-ESI-MS/MS analysis was performed on an API4000 triple quadrupole mass spectrometer (AB Sciex Germany GmbH, Darmstadt, Germany) equipped with an Agilent 1200 LC system (Agilent Technologies Deutschland GmbH & Co. KG, Waldbronn, Germany). For data acquisition and processing the software Analyst 1.6.1 (AB Sciex Germany GmbH, Darmstadt, Germany) was used. […] AITC-CysGly; AITC-Cys; AITC-NAC) was conducted according to Platz et al. ([38]) with minor modifications. The separation was performed on a Kinetex C18 column (Phenomenex, 5 μm, 100 Å, 150 x 2.1 mm). The autosampler operated at 4°C and the set temperature for the oven was 20°C. A constant flow of 300 μL/min was used for the mobile phase which consisted of 0.1% FA in water (A) and 0.1% FA in ACN (B). […] In order to equilibrate the column, A was increased to 90% and held for 5 min. The relevant MS parameters include an entrance potential of -10 V, a desolvation gas temperature of 450°C, ion spray potential of -4.5 kV, gas 1 and gas 2 at 46 psi and a curtain gas pressure at 10 psi.

TAS2R38-PAV = system: TAS2R38-PAV; parameters: method as in PMID 28902853; conditions: transfected HEK293 cells (~0.9% DMSO solution), approximately; cited from earlier work
[2] = system: intracellular calcium release; parameters: method as in PMID 8393876; conditions: 1% DMSO; cited from earlier work
TAS2R38 receptor = molecular target: T1, TAS2R38 receptor (Homo sapiens, UniProt P59533, A49P/I296V); assay: Calcium flux assay in human PBMC (flow cytometry, Fluo-4 AM); conditions: human PAV/PAV monocytes
T1 sequence (P59533 1-333 A49P/I296V): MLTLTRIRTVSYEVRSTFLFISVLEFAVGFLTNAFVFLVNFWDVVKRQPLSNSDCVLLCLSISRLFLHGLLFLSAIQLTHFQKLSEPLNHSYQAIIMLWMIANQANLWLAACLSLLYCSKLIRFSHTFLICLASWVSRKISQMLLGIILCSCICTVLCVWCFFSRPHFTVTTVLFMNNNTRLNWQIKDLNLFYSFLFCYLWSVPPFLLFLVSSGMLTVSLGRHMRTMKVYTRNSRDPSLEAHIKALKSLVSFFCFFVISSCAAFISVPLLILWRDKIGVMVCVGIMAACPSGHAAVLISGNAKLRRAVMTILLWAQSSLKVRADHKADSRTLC

[3] = system: extracellular calcium influx in monocytes; assay: Calcium flux in PAV/PAV monocytes after EDTA pre-treatment before AITC; conditions: 0.5 mM EDTA
TAS2R38 = system: TAS2R38; parameters: method as in PMID 23041624; conditions: sinonasal cells, TAS2R38 genotype dependent; cited from earlier work
PLC-β2 = PLC-β2 (Homo sapiens, UniProt Q00722); assay: Calcium flux in PAV/PAV monocytes after PLC-β2 antagonist pre-treatment before AITC; conditions: cell pretreatment with U73122 for 30 min
TRPV1 = TRPV1 (Homo sapiens, UniProt Q8NER1); assay: Calcium flux in PAV/PAV monocytes after TRPV1 antagonist pre-treatment before AITC; format: cell-based
Experimental: Baseline fluorescence was recorded for 60 sec.

[4] = system: sinonasal epithelial cells; parameters: method as in PMID 24531552; conditions: cited from earlier work
[5] = system: LPS stimulated leukocytes; conditions: cited from earlier work

TRPV1, sequence (Q8NER1 whole entry): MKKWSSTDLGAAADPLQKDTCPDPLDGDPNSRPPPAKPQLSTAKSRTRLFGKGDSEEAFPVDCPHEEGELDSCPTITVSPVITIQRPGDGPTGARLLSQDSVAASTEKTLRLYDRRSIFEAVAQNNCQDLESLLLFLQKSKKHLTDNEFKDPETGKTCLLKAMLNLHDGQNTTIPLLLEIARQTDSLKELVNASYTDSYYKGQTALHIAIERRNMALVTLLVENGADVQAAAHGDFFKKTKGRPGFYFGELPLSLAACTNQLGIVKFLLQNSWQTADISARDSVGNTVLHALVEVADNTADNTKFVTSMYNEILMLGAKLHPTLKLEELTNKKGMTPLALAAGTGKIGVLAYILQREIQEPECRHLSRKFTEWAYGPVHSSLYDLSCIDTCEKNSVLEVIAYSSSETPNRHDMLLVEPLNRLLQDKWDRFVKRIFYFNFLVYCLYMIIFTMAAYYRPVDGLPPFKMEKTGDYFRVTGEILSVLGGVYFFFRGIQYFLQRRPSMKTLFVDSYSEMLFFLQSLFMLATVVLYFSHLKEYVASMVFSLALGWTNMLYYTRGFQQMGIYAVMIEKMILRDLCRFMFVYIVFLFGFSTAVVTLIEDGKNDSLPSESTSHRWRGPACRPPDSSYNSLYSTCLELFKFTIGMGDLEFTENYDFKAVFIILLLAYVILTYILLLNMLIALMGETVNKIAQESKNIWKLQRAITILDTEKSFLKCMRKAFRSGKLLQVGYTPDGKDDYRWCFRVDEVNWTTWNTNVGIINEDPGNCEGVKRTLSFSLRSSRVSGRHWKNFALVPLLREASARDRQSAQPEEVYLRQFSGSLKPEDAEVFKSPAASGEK
PLC-β2, sequence (Q00722 whole entry): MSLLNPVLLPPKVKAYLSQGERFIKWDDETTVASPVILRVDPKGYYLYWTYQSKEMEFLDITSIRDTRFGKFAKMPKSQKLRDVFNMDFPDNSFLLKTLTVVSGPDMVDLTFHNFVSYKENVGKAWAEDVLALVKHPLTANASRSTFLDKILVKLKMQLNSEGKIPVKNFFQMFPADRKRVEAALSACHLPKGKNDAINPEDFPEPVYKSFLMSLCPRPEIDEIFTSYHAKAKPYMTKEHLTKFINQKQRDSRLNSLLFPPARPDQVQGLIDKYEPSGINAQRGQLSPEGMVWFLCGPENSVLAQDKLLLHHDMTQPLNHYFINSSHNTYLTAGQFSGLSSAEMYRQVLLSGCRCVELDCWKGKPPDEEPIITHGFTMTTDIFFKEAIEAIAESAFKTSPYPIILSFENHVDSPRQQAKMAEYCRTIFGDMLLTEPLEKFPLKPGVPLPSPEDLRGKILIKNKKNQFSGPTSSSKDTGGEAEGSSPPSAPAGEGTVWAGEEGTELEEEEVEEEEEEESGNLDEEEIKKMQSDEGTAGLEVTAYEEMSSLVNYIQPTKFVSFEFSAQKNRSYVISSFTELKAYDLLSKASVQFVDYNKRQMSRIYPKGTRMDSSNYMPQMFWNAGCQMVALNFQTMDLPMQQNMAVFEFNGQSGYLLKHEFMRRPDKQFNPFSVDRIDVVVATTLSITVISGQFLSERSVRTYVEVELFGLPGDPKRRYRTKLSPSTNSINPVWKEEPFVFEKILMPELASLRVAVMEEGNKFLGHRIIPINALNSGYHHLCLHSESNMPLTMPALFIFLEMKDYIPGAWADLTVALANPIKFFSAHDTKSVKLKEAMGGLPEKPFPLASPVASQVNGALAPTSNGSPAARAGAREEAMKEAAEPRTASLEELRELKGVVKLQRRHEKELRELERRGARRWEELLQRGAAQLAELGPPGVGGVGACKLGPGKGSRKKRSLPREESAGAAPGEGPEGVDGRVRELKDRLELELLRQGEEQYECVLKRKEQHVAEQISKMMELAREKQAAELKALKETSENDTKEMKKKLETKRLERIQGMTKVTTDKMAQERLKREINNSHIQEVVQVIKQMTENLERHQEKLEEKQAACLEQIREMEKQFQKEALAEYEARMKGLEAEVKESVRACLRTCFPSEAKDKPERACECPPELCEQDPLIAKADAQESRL

## C=CCC(=NOS(=O)(=O)O)S[C@@H]1O[C@H](CO)[C@@H](O)[C@H](O)[C@H]1O (stereo in doubt) [sinigrin]
TAS2R38-PAV receptor; HEK293T-Gα16gust44 cells transiently transfected
  activation of TAS2R38 taster variant among 25 TAS2Rs: selectively triggered the taster variant

## C=CCNC(=S)SC[C@H](N)C(=O)NCC(=O)O [AITC-CG]
[1]
  detection in plasma: No other AITC metabolites (AITC-GSH or AITC-CG) could be detected

## C=CCNC(=S)SC[C@H](NC(=O)CC[C@H](N)C(=O)O)C(=O)NCC(=O)O [AITC-GSH]
[1]
  detection in plasma: No other AITC metabolites (AITC-GSH or AITC-CG) could be detected

## C=CCNC(=S)SC[C@H](NC(C)=O)C(=O)O [AITC-NAC]
[1]; 0.5 h after 10 g mustard preparation
  blood plasma level: 836.7 ± 67.7 nM
[1]; 1 h after 10 g mustard preparation
  blood plasma level: 1001.0 ± 228.3 nM

## C[S+](C)[O-] [DMSO, Dimethyl sulfoxide]
TAS2R38-PAV
  threshold concentration: > 125 mM
[2]
  calcium release: significant calcium release
TAS2R38 receptor; 0.1% DMSO
  effect on calcium release: no effect
TAS2R38 receptor; starting from 1.5% DMSO, not statistically significant
  mean calcium increase compared to untreated cells: 36%

## O=C(O)CN(CCN(CC(=O)O)CC(=O)O)CC(=O)O [EDTA]
[3]; 1 µM AITC
  effect on calcium influx triggered by AITC: did not impact
[3]; 100 µM AITC
  reduction in calcium flux: 67%

## C[S@@+]([O-])CCCCN=C=S [L-sulforaphane]
TAS2R38-PAV receptor
  activation of the TAS2R38-PAV receptor: did not

## NC(=S)Nc1ccccc1 [PTC]
TAS2R38
  NO production: stimulated

## COc1ccc2c(c1)CC[C@@H]1[C@@H]2CC[C@]2(C)[C@@H](NCCCCCCN3C(=O)C=CC3=O)CC[C@@H]12 [U73122]
PLC-β2
  effect on AITC induced calcium release: almost completely block

## Oc1cc2c(cc1O)CN(C(=S)NCCc1ccc(Cl)cc1)CCC2 [capsazepine]
TRPV1; capsazepine pretreatment, 1 µM AITC
  effect on AITC mediated calcium release: not effected
TRPV1; pretreatment 10 µM capsazepine, stimulation with 100 µM AITC
  effect on AITC mediated calcium release: reduction of AITC mediated calcium release

## CC[N+](CC)(CC(=O)Nc1c(C)cccc1C)Cc1ccccc1 [denatonium]
[4]
  cytokine release: marginal change
[5]
  multiple cytokine production, including TNF-α: marked reduction

## S=C=NCCc1ccccc1 [phenylethyl ITC]
TAS2R38-PAV receptor
  activation of the TAS2R38-PAV receptor: activated
